“Also recorded” adds a separate entry of the source.
How the values were obtained:
Hs746T xenografts = assay: Hs746T gastric cancer xenograft model; assay type: in vivo, mouse; details: 3 mg/kg once per week for 4 weeks
Description: Female athymic nude mice age 6- to 7-weeks old are available commercially, including from Harlan Laboratories (Indianapolis, Ind.). The mice are allowed to acclimate for one week and fed ad libitum on a normal low fat (4.5%) diet, which may be continued for the duration of the study. Tumor cells may be purchased from ATCC and may be cultured in cell culture media such as RPMI 1640 (Life Technologies) with L-glutamine, 25 mM HEPES supplemented with 10% FBS and 1 mM Na Pyruvate. Cells may be detached, washed with serum free medium and then resuspended at a final concentration of 50×10^6 cells/mL in serum free RPMI 1640. Tumor cells, approximately 5×10^6, may be injected subcutaneously in the rear flank of subject mice in a 1:1 mixture of serum free growth medium and Matrigel (Becton Dickinson, Bedford, Mass.). Tumor and body weight measurements may be performed twice weekly. Prior to treatment, mice can be randomized based on tumor size using a randomization algorithm. Treatments may be started when the average tumor volume reaches 100 mm^3. […]
MET-ADCs and control hIgG4-MMAE may be prepared in Phosphate Buffered Saline (PBS) prior to dose. Tumor size may be determined by caliper measurements. […] Log volume data can be analyzed with two-way repeated measures ANOVA by time and treatment using SAS PROC MIXED software (SAS Institutes Inc, Cary, N.C.). […]

[1] = test system: pancreatic cancer PDX tumors; assay: Pancreatic cancer patient-derived xenograft (PDX) models; assay type: in vivo, mouse; details: 5 mg/kg weekly, four doses
From the text: Body weight can also be assessed regularly.
Pancreatic tumors are known in the art to overexpress MET and have more than 90% KRAS mutations (Yabar, C. S. and Winter, J. M., Gastroenterol Clin N Am 45: 429-445 (2016)). Pancreatic tumor samples from 40 human pancreatic cancer patients were individually implanted into different immunocompromised mice (i.e., each mouse carried one tumor derived from a patient's […] tumor) essentially as described above in this Example 12.

Hs 746T = assay: Cell killing, Hs 746T; assay type: cell-based, human; parameters: key: Sensitive; Resistant; details: Gastric Ca
Description: (§1) Briefly described, 2-3×10^3 cells/well in 100 μL of culture medium may be plated in 96 well plates and incubated overnight at 37° C., 5% CO2. The MET-ADCs, MET antibody(ies), control MMAE or control hIgG4 conjugated to MMAE with cysteine conjugation antibody(ies) may be diluted 1:3 in serum-free culture medium starting from 100 nM (final) in 50 μL as 3× concentrations to the HT-29 cells. At the end of an additional 5-6 days of cell growth at 37° C. in a humidified incubator with 5% CO2, the plates may be equilibrated to room temperature for 30 minutes and 100 μL/well of CellTiter-Glo® reagent (Promega Corp., Fitchburg, Wis.) may then be added to assess cell viability. Cell viability may be determined by measuring luminescence.
(§2) Various tumor cell lines and normal human cells may be tested for MET-ADC induced cell killing activity essentially as described above in Example 10 as assessed for MET receptor density. MET cell surface density was determined by indirect immunofluorescence staining of cell surface antigens on cultured cells using QIFIKIT (Dako). […] Following a forty-five minute incubation, cells may be incubated for 1 hour on ice with FITC conjugated antibody diluted 1:50 in FACS buffer. Then cells may be washed and receptor numbers may be determined by indirect immunofluorescence staining of the QIFIKIT beads using a Becton Dickinson LSRII flow cytometer.

HPAF-II = assay: Cell killing, HPAF-II; assay type: cell-based, human; parameters: key: Sensitive; Resistant; details: PANC Ca
Description: as §1, §2

CFPAC-1 = assay: Cell killing, CFPAC-1; assay type: cell-based, human; parameters: key: Sensitive; Resistant; details: CFPAC-1, PANC Ca
Description: as §1, §2

humen fresh naïve PBMC = assay: Cell killing, fresh naïve PBMC; assay type: cell-based, human; parameters: key: Sensitive; Resistant; details: 3 donors
Description: as §1, §2

MiaPaca-2 = assay: Cell killing, MiaPaca-2; assay type: cell-based, human; parameters: key: Sensitive; Resistant; details: MiaPaca-2, PANC Ca
Description: as §1, §2

KP-4 = assay: Cell killing, KP-4; assay type: cell-based, human; parameters: key: Sensitive; Resistant; details: KP-4, PANC Ca
Description: as §1, §2

HT-29 cells = assay: HT-29 cell-killing assay; assay type: cell-based, human; parameters: key to Sensitive/ Resistant: Sensitive; Resistant
Description: Therefore, the HT-29 cell line may be used to determine if test MET-ADCs can kill MET overexpressing tumor cells in vitro.
as §1, §2

SW 1990 = assay: Cell killing, SW 1990; assay type: cell-based, human; parameters: key: Sensitive; Resistant; details: SW 1990, PANC Ca
Description: as §1, §2

HCC827 = assay: Cell killing, HCC827; assay type: cell-based, human; parameters: key: Sensitive; Resistant; details: HCC827, NSCLC
Description: as §1, §2

T47D = assay: Cell killing, T47D; assay type: cell-based, human; parameters: key: Sensitive; Resistant; details: Breast Ca
Description: as §1, §2

SNU1196 = assay: Cell killing, SNU1196; assay type: cell-based, human; parameters: key: Sensitive; Resistant; details: SNU1196, Cholangiocarcinoma
Description: as §1, §2

Aspc-1 = assay: Cell killing, Aspc-1; assay type: cell-based, human; parameters: key: Sensitive; Resistant; details: Aspc-1, PANC Ca
Description: as §1, §2

Cal27 = assay: Cell killing, Cal27; assay type: cell-based, human; parameters: key: Sensitive; Resistant; details: Cal27, head and neck cancer
Description: as §1, §2

Caco-2 = assay: Cell killing, Caco-2; assay type: cell-based, human; parameters: key: Sensitive; Resistant; details: Caco-2, Colorectal Ca
Description: as §1, §2

CXF-269L = assay: Cell killing, CXF-269L; assay type: cell-based, human; parameters: key to Sensitive/ Resistant: Sensitive; Resistant
Description: as §1, §2

L55 = assay: Cell killing, L55; assay type: cell-based, human; parameters: key: Sensitive; Resistant; details: L55, NSCLC
Description: as §1, §2

With “MET-ADC#1: emibetuzumab lysine-conjugated via (2,5-dioxopyrrolidin-1-yl) 2-azidoacetate and Octyne-β-Glucn-MMAE” the antitumor efficacy (Hs746T xenografts) was “significantly greater antitumor efficacy than the IgG4 Lys-MMAE control treatments; also recorded: durable and complete tumor regression”, the “DCR: disease control rate (CR+PR+SD over total 40)” value [1] was 60% and the “PD: progressive disease (% Delta T/C>10%), number of PDX” value ([1]; total 40) was 16. The “PR: partial response (% Regression<=−50% and tumor volume>14 mm^3), number of PDX” value ([1]; total 40) was 9, the “effect on volume of pancreatic cancer PDX tumors” value ([1]; vs control hIgG4-ADC) was “profoundly reduced the volume of the pancreatic cancer PDX tumors” and the “Sensitive/ Resistant” value (Hs 746T) was “S”. For the same substance, the “Sensitive/ Resistant” value (HPAF-II) was “S”, the “Sensitive/ Resistant” value (CFPAC-1) was “R” and the “Sensitive/ Resistant” value (humen fresh naïve PBMC) was “R”. For the same substance, the “Sensitive/ Resistant” value (MiaPaca-2) was “R”, the “Sensitive/ Resistant” value (KP-4) was “S” and the “Sensitive/ Resistant” value (HT-29 cells; HT29, Colorectal Ca) was “S”. For the same substance, the “cell killing activity in HT-29 cells” value (HT-29 cells; HT-29 cells) was “kills MET expressing HT-29 tumor cells better than the parental anti-MET antibody, emibetuzumab, free MMAE, or a combination of emibetuzumab and free MMAE; also recorded: highly potent in killing HT-29 cells”, the “greater potency in killing HT-29 tumors cells as compared to ABBV-399” value (HT-29 cells; HT-29 cells) was 200 fold and the “Sensitive/ Resistant” value (SW 1990) was “R”. The “Sensitive/ Resistant” value (HCC827) was “S”, the “Sensitive/ Resistant” value (T47D) was “R” and the “Sensitive/ Resistant” value (SNU1196) was “R”. The “Sensitive/ Resistant” value (Aspc-1) was “S”, the “Sensitive/ Resistant” value (Cal27) was “S” and the “Sensitive/ Resistant” value (Caco-2) was “R”. The “cell killing activity in CXF-269L cells” value (CXF-269L; CXF-269L (TP53) colon cancer cells) was “killed”, the “Sensitive/ Resistant” value (CXF-269L; CXF-269L, Colorectal Ca) was “S” and the “Sensitive/ Resistant” value (L55) was “R”.

Reference: US11167039B2, “MET antibody drug conjugates” (priority 2016, dated 2021)
